From patent EP4756027A1, “DOUBLE-STRANDED RIBONUCLEIC ACID TARGETING PD-L1” (Chia Tai Tianqing Pharmaceutical Group Co., Ltd., priority 2023, dated 2025)

Legend:
[1] = tested on: PD-L1 mRNA; assay: Activity evaluation A in human PD-L1 model mice (liver PD-L1 mRNA, qPCR); format: in vivo; conditions: liver tissue, 10 mg/kg subcutaneous single dose, 14 days after treatment, vs PBS group
Protocol: (§1) Male human PD-L1 mice (purchased from Shanghai Model Organisms Center, Inc.) aged 6-8 weeks were randomized by weight, with 3 mice in each group. The groups were designated as a PBS group and various sample groups (dsRNA ligand conjugate of the present application).
(§2) Each sample group (dsRNA ligand conjugate of the present application) received a 1 mg/mL solution prepared in 1× PBS (pH 7.4).
Each mouse in the PBS group was subcutaneously injected with 10 mL/kg body weight of 1× PBS (pH 7.4), and each mouse in the sample groups (dsRNA ligand conjugate of the present application) was subcutaneously injected with the corresponding solution prepared as described above. The administration volume for each animal was 10 mL/kg body weight, and the administration dose was 10 mg/kg body weight. The day of the first dose was designated as day 0. All mice were sacrificed 14 days after the treatment, and the liver was collected and preserved in 1.5 mL sterile EP tubes containing 1 mL of animal tissue RNA stabilizing solution (Shanghai Beyotime Biotech Inc., Cat. No. R0118). After being preserved in a refrigerator at 4 °C for 24 h, the liver was transferred to -80 °C for storage. […]
For each reverse transcription reaction system, the cDNA-containing solution described above was taken as the qPCR template, and 20 µL of the qPCR reaction system was prepared using the reagent provided by the ChamQ SYBRqPCR Master Mix kit (Vazyme Biotech Co., Ltd., Cat. No. Q311). […] The qPCR reaction system was placed on a LightCycler 480 fluorescent quantitative PCR system and amplified using the three-step method. […] The real-time fluorescent quantitative PCR system separately acquired the dissolution curves of the target gene PD-L1 and the internal reference gene GAPDH in the PCR amplification products to give the Ct values of the target gene PD-L1 and the internal reference gene GAPDH. […]

[2] = tested on: PD-L1 mRNA; assay: Activity evaluation B in human PD-L1 model mice (liver PD-L1 mRNA, qPCR); format: in vivo; conditions: liver tissue, 10 mg/kg subcutaneous; for PD-L1 expression inhibition rate (%), Day 14 after treatment, Avg: day 14, vs PBS group; for PD-L1 expression inhibition rate (%), Day 28 after treatment, Avg: day 28, vs PBS group
Protocol: as §1, §2
Each mouse in the PBS group was subcutaneously injected with 10 mL/kg body weight of 1× PBS (pH 7.4), and each mouse in the sample groups (dsRNA ligand conjugate of the present application) was subcutaneously injected with the corresponding solution prepared as described above. The administration volume for each animal was 10 mL/kg body weight, and the administration dose was 10 mg/kg body weight. The day of the first dose was designated as day 0. The liver was collected on days 14 and 28 after the treatment and preserved in 1.5 mL sterile EP tubes containing 1 mL of animal tissue RNA stabilizing solution (Shanghai Beyotime Biotech Inc., Cat. No. R0118). After being preserved in a refrigerator at 4 °C for 24 h, the liver was transferred to -80 °C for storage. Then, the liver tissue of each mouse was homogenized using a tissue homogenizer, and the total RNA of the liver tissue of each mouse was separately extracted using the TaKaRa MiniBEST Universal RNA Extraction Kit (TAKARA, Cat. No. 9767) according to the procedures for total RNA extraction in the instructions.
The procedures of reverse transcription to synthesize cDNA and fluorescence quantitative PCR, the primers, and the calculation of inhibition rate are shown in Experimental Example 3.

M03L01: dsRNA ligand conjugate; modified sense SEQ ID NO 35 with L01 ligand (GalNAc), antisense SEQ ID NO 36 (sense CTATTTATTTTGAGTCTGT; antisense ACAGACTCAAAATAAATAGGA; 2'-O-methyl and 2'-fluoro modified, full pattern not given here, GalNAc L01 on sense)
PD-L1 expression inhibition rate (%), Avg [1]: 78.2%

M11L01: dsRNA ligand conjugate; modified sense SEQ ID NO 51 with L01 ligand (GalNAc), antisense SEQ ID NO 52 (sense TATTTATTTTGAGTCTGTG; antisense CACAGACTCAAAATAAATAGG; 2'-O-methyl and 2'-fluoro modified, full pattern not given here, GalNAc L01 on sense)
PD-L1 expression inhibition rate (%), Day 14 after treatment, Avg [2]: 66.7%
PD-L1 expression inhibition rate (%), Day 28 after treatment, Avg [2]: 39.2%

M01L01: dsRNA ligand conjugate; modified sense SEQ ID NO 31 with L01 ligand (GalNAc), antisense SEQ ID NO 32 (sense AGCAATATGACAATTGAATGA; antisense TCATTCAATTGTCATATTGCTAC; 2'-O-methyl and 2'-fluoro modified, full pattern not given here, GalNAc L01 on sense)
PD-L1 expression inhibition rate (%), Avg [1]: 59.3%

M08L01: dsRNA ligand conjugate; modified sense SEQ ID NO 45 with L01 ligand (GalNAc), antisense SEQ ID NO 46 (sense GCTGCATGATCAGCTATGGTA; antisense TACCATAGCTGATCATGCAGCGG; 2'-O-methyl and 2'-fluoro modified, full pattern not given here, GalNAc L01 on sense)
PD-L1 expression inhibition rate (%), Day 14 after treatment, Avg [2]: 26.7%

M12L01: dsRNA ligand conjugate; modified sense SEQ ID NO 55 with L01 ligand (GalNAc), antisense SEQ ID NO 56 (sense ATTTACTGTCACGGTTCCCAA; antisense TTGGGAACCGTGACAGTAAATGC; 2'-O-methyl and 2'-fluoro modified, full pattern not given here, GalNAc L01 on sense)
PD-L1 expression inhibition rate (%), Day 14 after treatment, Avg [2]: 78.6%
PD-L1 expression inhibition rate (%), Day 28 after treatment, Avg [2]: 50%

M10L01: dsRNA ligand conjugate; modified sense SEQ ID NO 49 with L01 ligand (GalNAc), antisense SEQ ID NO 50 (sense ATTGGTCATCCCAGAACTACA; antisense TGTAGTTCTGGGATGACCAATTC; 2'-O-methyl and 2'-fluoro modified, full pattern not given here, GalNAc L01 on sense)
PD-L1 expression inhibition rate (%), Day 14 after treatment, Avg [2]: 64.6%
PD-L1 expression inhibition rate (%), Day 28 after treatment, Avg [2]: 47.0%

M07L01: dsRNA ligand conjugate; modified sense SEQ ID NO 43 with L01 ligand (GalNAc), antisense SEQ ID NO 44 (sense AATGAAAGGACTCACTTGGTA; antisense TACCAAGTGAGTCCTTTCATTTG; 2'-O-methyl and 2'-fluoro modified, full pattern not given here, GalNAc L01 on sense)
PD-L1 expression inhibition rate (%), Day 14 after treatment, Avg [2]: 49.0%

M02L01: dsRNA ligand conjugate; modified sense SEQ ID NO 33 with L01 ligand (GalNAc), antisense SEQ ID NO 34 (sense ATTTACTGTCACGGTTCCCAA; antisense TTGGGAACCGTGACAGTAATAGC; 2'-O-methyl and 2'-fluoro modified, full pattern not given here, GalNAc L01 on sense)
PD-L1 expression inhibition rate (%), Avg [1]: 67.1%
